17 compounds from patent publication US20060178372A1, “Therapeutic quinoline compounds” (AstraZeneca AB, priority 2001, published 2006) can be followed below.

Tested on in one series: not given
Experiment: not given
Conditions: not given
On to `CN1CCN(c2cccc3c2OC(C(=O)Nc2ccc(N4CCOCC4)cc2)CC3)CC1` (racemic) [Example 75, racemic-8-(4-Methyl-piperazin-1-yl)-chroman-2-carboxylic acid (4-morpholin-4-yl-phenyl)-amide], for which the melting point (commonly the temperature of the solid-liquid transition) lay in the range of 215 to 216 °C.

In the case of `CN1CCN(c2cccc3c2OC(C(=O)Nc2ccc(N4CCOCC4)cc2)CC3=O)CC1` (racemic) [Example 78, racemic-8-(4-methyl-piperazin-1-yl)-4-oxo-chroman-2-carboxylic acid (4-morpholin-4-yl-phenyl)-amide], the melting point lay within 215 to 216 °C.

Take `CN1CCN(c2cccc3c2OC(C(=O)Nc2ccc(N4CCOCC4)cc2)CC3=O)CC1` (single isomer, unassigned) [Example 79, 8-(4-Methyl-piperazin-1-yl)-4-oxo-chroman-2-carboxylic acid (4-morpholin-4-yl-phenyl)-amide (faster running isomer)]: the melting point is 216 °C (dec.).

Take `CN1CCN(c2cccc3c2OC(C(=O)Nc2ccc(N4CCOCC4)cc2)CC3=O)CC1` (single isomer, unassigned) [Example 80, 8-(4-Methyl-piperazin-1-yl)-4-oxo-chroman-2-carboxylic acid (4-morpholin-4-yl-phenyl)-amide (slower running isomer)]: the melting point was 215 °C (dec.).

As to `CN1CCN(c2cccc3c2OC(C(=O)Nc2ccc(N4CCOCC4)cc2)CC3)CC1` (single isomer, unassigned; (+)) [Example 76, (+)-8-(4-Methyl-piperazin-1-yl)-chroman-2-carboxylic acid (4-morpholin-4-yl-phenyl)-amide], the melting point was 206 to 207 °C.

Compound `CN1CCN(c2cccc3c2OC(C(=O)Nc2ccc(N4CCOCC4)cc2)CC3)CC1` (single isomer, unassigned; (-)) [Example 77, (−)-8-(4-Methyl-piperazin-1-yl)-chroman-2-carboxylic acid (4-morpholin-4-yl-phenyl)-amide] had a melting point of 205.5 to 207 °C.

Turning to `CN1CCN(c2cccc3c(=O)cc(C(=O)Nc4ccc(N5CCOCC5)cc4)oc23)CC1` [Example 1, 8-(4-methyl-1-piperazinyl)-N-[4-(4-morpholinyl)phenyl]-4-oxo-4H-chromene-2-carboxamide], the melting point is 217 to 218 °C (dec.).

The compound `CN1CCN(c2cccc3c(=O)cc(-c4nc5ccc(N6CCOCC6)cc5o4)oc23)CC1` [Example 21, 8-(4-Methyl-piperazin-1-yl)-2-(6-morpholin-4-yl-benzooxazol-2-yl)-chromen-4-one] came in with a melting point of 158.1 to 158.8 °C.

With `CN1CCN(c2cccc3c(=O)cc(C(=O)Nc4ccc(N5CCOCC5)cc4O)oc23)CC1` [Example 22, 8-(4-Methyl-piperazin-1-yl)-4-oxo-4H-chromene-2-carboxylic acid (2-hydroxy-4-morpholin-4-yl-phenyl)-amide], the melting point fell in the range of 248.4 to 249.6 °C.

As to `CN1CCN(c2cccc3c(=O)cc(C(=O)N(C)c4ccc(N5CCOCC5)cc4)oc23)CC1` [Example 25, 8-(4-Methylpiperazin-1-yl)-4-oxo-4H-chromene-2-carboxylic acid methyl-(4-morpholin-4-yl-phenyl)amide], the melting point was in the range of 245 to 246.8 °C.

The compound `COc1cc(N2CCN(C)CC2)c2oc(C(=O)Nc3ccc(N4CCOCC4)cc3)cc(=O)c2c1` [Example 31, 6-Methoxy-8-(4-methyl-piperazin-1-yl)-4-oxo-4H-chromene-2-carboxylic acid (4-morpholin-4-yl-phenyl)-amide] gave a melting point of 234 to 236 °C.

`COc1cc(N2CCN(C)CC2)c2oc(C(=O)Nc3ccc(N4CCN(C(=O)CCO)CC4)cc3)cc(=O)c2c1` [Example 68, 6-Methoxy-8-(4-methyl-piperazin-1-yl)-4-oxo-4H-chromene-2-carboxylic acid {4-[4-(3-hydroxy-propanoyl)-piperazin-1-yl]-phenyl}-amide] came in with a melting point of 195 to 197 °C.

`CCS(=O)(=O)N1CCN(c2ccc(NC(=O)c3cc(=O)c4cc(F)cc(N5CCN(C)CC5)c4o3)cc2)CC1` [Example 71, 6-Fluoro-8-(4-methyl-piperazin-1-yl)-4-oxo-4H-chromene-2-carboxylic acid [4-(4-ethane sulfonyl-piperazin-1-yl)-phenyl]-amide]: the melting point fell in the range of 233 to 234 °C.

As to `CN1CCN(c2cc(F)cc3c(=O)cc(C(=O)Nc4ccc(N5CCN(C(=O)CCO)CC5)cc4)oc23)CC1` [Example 73, 6-Fluoro-8-(4-methyl-piperazin-1-yl)-4-oxo-4H-chromene-2-carboxylic acid {4-[4-(3-hydroxy-propanoyl)-piperazin-1-yl]-phenyl}-amide], the melting point was 195 to 199 °C.

In the case of `CCNC(=O)N1CCN(c2ccc(NC(=O)c3cc(=O)c4cc(F)cc(N5CCN(C)CC5)c4o3)cc2)CC1` [Example 81, 4-[4-({1-[6-Fluoro-8-(4-methyl-piperazin-1-yl)-4-oxo-4H-chromen-2-yl]-methanoyl}-amino)-phenyl]-piperazine-1-carboxylic acid ethylamide], the melting point fell in the range of 236 to 238 °C.

For another series, the system named is guinea pigs. Description: learned helplessness test for antidepressant/antianxiety activity. The class given is in vivo. As to conditions: guinea pig. The text has this: The utility of the compounds for example to treat depression may be shown via a learned helplessness test in guinea pigs, which is used extensively as correlative to antidepressant activity in humans. The learned helplessness test may be carried out as follows: Seventy male Hartley guinea pigs, each weighing about 350-425 gm are fed ad lib, and are housed under a 12-hour light/dark cycle. The procedure consists of two phases: The induction phase and the avoidance training phase. In the induction phase, subjects are placed into standard shuttle cages (20 L×16 W×21 centimeters H) which are fitted with a grid floor. Electrical stimulation (1.25 mA, 10 sec duration) is delivered to the floor of the cage every 90-sec during 1 hour daily sessions. Subjects have no opportunity to escape or to avoid shocks. Induction is conducted for 2 consecutive days.
In avoidance training, testing is also conducted in the shuttle cages, except that the subjects are not returned to the same chamber in which induction had occurred. Additionally, all cages are fitted with a partition with an arch in the center of the cage, through which animals can pass between the left and right halves of the cage. The procedure employed is a standard shuttle avoidance procedure in which a compound, conditioned stimulus (a 10-sec presentation of a tone and turning on of a lamp on the side of the cage that the guinea pig was occupying) serves to indicate presentation of electrical current to the floor of the cage. Shock is presented for a 5 sec period, 5 sec after initiation of the conditioned stimulus. Entry into the opposite side of the shuttle cage via the arched partition prior to shock onset results in the end of the trial (avoidance response). If shock is delivered, entry into the opposite side of the cage results in termination of the shock and CS (escape). Reversal of learned helplessness in the induction subjects correlates to antidepressant activity of the test compound.
Avoidance training, 45-min in duration, is conducted on 2 consecutive days, beginning 48 hr after the final induction session. Seventy subjects are assigned to 1 of 6 groups of 11-12 animals. The groups are as follows:
1) No induction group. The subjects are placed into the shuttle cages but are not given inescapable shock, the animals are subsequently trained in the avoidance procedure and the vehicle is administered;
2) Induction vehicle control group;
3) Imipramine 17.8 mg/kg;
5) 1 mg/kg compounds; and
Groups 2-6 are given induction and avoidance training sessions. Injections are administered immediately following induction sessions and 1 hour prior to avoidance training sessions. A second injection is administered 7-8 hours following the first injection, for a total of 9 injections administered over 5 days. […]
For the compound `COc1cc(N2CCN(C)CC2)c2oc(C(=O)Nc3ccc(N4CCOCC4)cc3)cc(=O)c2c1` [Example 31, 6-Methoxy-8-(4-methyl-piperazin-1-yl)-4-oxo-4H-chromene-2-carboxylic acid (4-morpholin-4-yl-phenyl)-amide], the “activity in the learned helplessness assay” value (“activity” below) is listed as “demonstrate activity”.

Consider `CCC(=O)N1CCN(c2ccc(NC(=O)c3cc(=O)c4cc(OC)cc(N5CCN(C)CC5)c4o3)cc2)CC1` [Example 44, 6-Methoxy-8-(4-methyl-piperazin-1-yl)-4-oxo-4H-chromene-2-carboxylic acid [4-(4-propionyl-piperazin-1-yl)-phenyl]-amide], for which the “activity” value is reported as “demonstrate activity”.

As to `CCS(=O)(=O)N1CCN(c2ccc(NC(=O)c3cc(=O)c4cc(F)cc(N5CCN(C)CC5)c4o3)cc2)CC1` [Example 71, 6-Fluoro-8-(4-methyl-piperazin-1-yl)-4-oxo-4H-chromene-2-carboxylic acid [4-(4-ethane sulfonyl-piperazin-1-yl)-phenyl]-amide], the “activity” value is “demonstrate activity”.

In the case of `CCC(=O)N1CCN(c2ccc(NC(=O)c3cc(=O)c4cc(F)cc(N5CCN(C)CC5)c4o3)cc2)CC1` [Example 72, 6-Fluoro-8-(4-methyl-piperazin-1-yl)-4-oxo-4H-chromene-2-carboxylic acid [4-(4-propionyl-piperazin-1-yl)-phenyl]-amide], the “activity” value is reported as “demonstrate activity”.
